Tests used:
HT1080.hPSMA xenografts [1] = test: Payload study and combination therapy with L19-IL2 in HT1080.hPSMA tumor model (tumor volume); assay type: in vivo, mice; conditions: conjugates 250 nmol/kg i.v. days 7 and 11; L19-IL2 2.5 mg/kg i.v. days 8, 10, 12; n=3/4
Method: HT1080.hPSMA tumor cells were grown to 90% confluence and detached with Trypsin-EDTA 0.05%. Cells were resuspended in Hank's Balanced Salt Solution (HBSS) at a 5×10^7 cells/mL density. 100 μL of HT1080.hPSMA cells (5×10^6 cells) were injected subcutaneously in the right flank of female athymic Balb/c AnNRj-Foxn1 mice (6 to 8 weeks of age). Tumors were grown until an average volumes of ˜100 mm^3 was reached.
Tumor-bearing mice were randomized into groups of 3 or 4 animals. A 50 μM solution (2% DMSO, 250 nmol/kg; 100 μL) of Conjugate 1, 5, or 6, L19-IL2 (SEQ ID NO: 10, 0.5 mg/mL, 2.5 mg/kg; 100 μL), PBS (100 μL), or L19-IL2 buffer (NaH2PO4 6.7 mM, NaCl 20 mM, KCl 1.8 mM, Mannitol 133 mM, Tween80 0.1% v/v, Glycerol 1% w/v; 100 μL) was injected intravenously (i.e., systemic administration through tail-vein) with the following schedule:
Groups of Conjugates 1, 5, or 6: two separate injections with a 3-day break in between (day 7 and day 11 after tumor implantation).
L19-IL2 group: three separate injections with a 1-day break in between (day 8, day 10, and day 12 after tumor implantation).
Combination therapy groups: two separate injections of Conjugate 1, 5, or 6 with a 3-day break in between (day 7 and day 11 after tumor implantation) and three separate injections of L19-IL2 with a 1-day break in between (day 8, day 10, and day 12 after tumor implantation). […]

HT1080.hPSMA tumor = test: MMAE release from conjugates in HT1080.hPSMA tumor model (comparison and timepoint study); assay type: in vivo, mice; conditions: HT1080.hPSMA tumor, n=3
Method: HT1080.hPSMA tumor cells were grown to 90% confluence and detached with Trypsin-EDTA 0.05%. Cells were resuspended in Hank's Balanced Salt Solution (HBSS) at a density of 5×10^7 cells/mL. 100 μL of HT1080.hPSMA cells (5×10^6 cells) were injected subcutaneously in the right flank of female athymic Balb/c AnNRj-Foxn1 mice (6 to 8 weeks of age). Tumors were grown until ˜250 mm^3 volume (average).
Comparison study: 0.1 mL of 50 μM solutions (2% DMSO, PBS, 250 nmol/kg) of the four conjugates (1 to 4) were injected intravenously. The animals were sacrificed in groups of 3 after 24 h, and blood and the following organs were extracted: HT1080.hPSMA tumor, heart, lungs, liver, kidney, spleen, stomach. The blood fraction was centrifuged, and the plasma (supernatant) was extracted. The organs were stored at −80° C. before being used for further analysis.
Timepoint study: 0.1 mL of a 50 μM solution (2% DMSO, PBS, 250 nmol/kg) of conjugate 1 was injected intravenously into the tail vein of the mice. The animals were sacrificed in groups of 3 after 6 h, 24 h, 48 h, and 72 h, and blood and the following organs were extracted: HT1080.hPSMA tumor, heart, lungs, liver, kidney, spleen, stomach. The blood fraction was centrifuged, and the plasma (supernatant) was extracted. The organs were stored at −80° C. before being used for further analysis.
Frozen plasma (50 μL) and mouse tissues (˜50 mg) were thawed, and 500 μL of PBS was added. Samples were kept on ice, and 50 μL solution of internal standard (d8-MMAE, 50 nM) was added. Samples were then homogenized at 4° C. with a tissue lyser for 2 minutes at 30 Hz for 4 cycles. After homogenization, samples were centrifuged (21'000 g, 10 min). Subsequently, 100 μL of supernatants were collected and added to 900 μL of acetonitrile (ACN) to induce protein precipitation. After centrifugation (21'000 g, 10 min), 800 μL of supernatants were collected and dried at room temperature with a vacuum centrifuge. Pellets were then resuspended in 20 μL of an aqueous solution containing 3% ACN and 0.1% of HCOOH, and 5 μL were injected into the UHPLC-MS system. Chromatographic separation was carried out on a Hypersil Gold C18 column (100 mm×2.1 mm, 1.9 μm particle size, 175 Å pore size) column temperature was set at 50° C. and a flow rate of 700 μL/min with a gradient program from 95% A (water+0.1% HCOOH), 5% B (ACN+0.1% HCOOH) to 35% of A in 2.5 minutes, from 35% A to 5% A in 0.4 minutes and 5% A was kept for 1.3 minutes before reconditioning at 95% A. The LC system was coupled to a Q-Exactive mass spectrometer via an Ion Max HESI Source. Ionization was carried out with a spray voltage of 3.5 kV; Sheath gas 40 units; Aux gas 10 units; capillary temperature of 380° C.; Aux gas temperature 450° C.; S-lens RF level 60. The mass spectrometer was operating in targeted Single Ion Monitoring mode (t-SIM) following the molecular ion 718.5113 m/z. The detector was working in positive ionization mode with the following parameters: resolution 70'000 (FWHM at 200 m/z); AGC target of 5×10^4; maximum injection time of 200 ms; isolation window 14 m/z; isolation offset 5 m/z. Peak areas of analytes and internal standards were integrated, and corresponding ratios were calculated. The ratios were then transformed into pmol/g of wet tissue using single-concentration external calibration points and corrected by the total weight of the sample analysed. The percentage of injected dose per gram (% ID/g) was finally calculated by normalizing the value based on the total dose injected into the mouse. Data analysis was performed with Skyline v22.2.0.351.

HT1080.hPSMA xenografts [2] = test: Comparative therapy experiment in mice bearing HT1080.hPSMA xenografts (tumor volume); assay type: in vivo; conditions: 250 nmol/kg i.v. on days 8, 10, 12 after tumor implantation, n=5
Method: (§1) HT1080.hPSMA tumor cells were grown to 90% confluence and detached with Trypsin-EDTA 0.05%. Cells were resuspended in Hank's Balanced Salt Solution (HBSS) at a 5×10^7 cells/mL density. 100 μL of HT1080.hPSMA cells (5×10^6 cells) were injected subcutaneously in the right flank of female athymic Balb/c AnNRj-Foxn1 mice (6 to 8 weeks of age). Tumors were grown until volumes of […].
(§2) Tumor-bearing mice were randomized into groups of 5 and 0.1 mL of 50 μM solutions (2% DMSO, PBS, 250 nmol/kg) of the four conjugates (1 to 4), or saline solution (0.9% NaCl) was injected intravenously three times with 1-day break in between (days 8, 10, and 12 after tumor implantation).

[3] = Body weight change during comparative therapy experiment (Example 4); assay type: in vivo, mice; conditions: 250 nmol/kg i.v. on days 8, 10, 12, n=5
Method: as §1, §2

## CC[C@H](C)[C@@H]([C@@H](CC(=O)N1CCC[C@H]1[C@H](OC)[C@@H](C)C(=O)N[C@H](C)[C@@H](O)c1ccccc1)OC)N(C)C(=O)[C@@H](NC(=O)[C@H](C(C)C)N(C)C(=O)OCc1ccc(NC(=O)[C@@H]2CCCN2C(=O)CNC(=O)CCCCCN2C(=O)CC(SC[C@H](N)C(=O)NCCCCCC(=O)NC[C@H]3CC[C@H](C(=O)N[C@@H](Cc4ccc5ccccc5c4)C(=O)NCCCC[C@H](NC(=O)N[C@@H](CCC(=O)O)C(=O)O)C(=O)O)CC3)C2=O)cc1)C(C)C (stereo partly drawn) [Conjugate 1]
HT1080.hPSMA xenografts [1]
  In vivo anti-tumor activity, monotherapy (tumor volume): slightly lower anti-cancer efficacy as compared to Conjugate 5
HT1080.hPSMA tumor; 6 h, 24 h, 48 h, 72 h after i.v. 250 nmol/kg
  Timepoint study of MMAE release: stable payload accumulation in the tumors over an extended time
HT1080.hPSMA tumor; 24 hours after intravenous injection, 250 nmol/kg
  MMAE release in tumor: 4.5 % ID/g
HT1080.hPSMA xenografts [2]
  Complete remissions: 1/5
  Therapeutic efficacy (tumor volume change): significant shrinkage of the tumors of all 5 mice
[3]
  Toxicity (body weight change %): lowest toxicity

Reference: US12576154B2, “Conjugates of PSMA-binding moieties with cytotoxic agents” (PHILOCHEM AG, priority 2022, dated 2026)
